Legend:
Conditions in all cases: drug exposure time: 96 h
Sirolimus = compound: CO[C@H]1C[C@@H]2CC[C@@H](C)[C@@](O)(O2)C(=O)C(=O)N2CCCC[C@H]2C(=O)O[C@H]([C@H](C)C[C@@H]2CC[C@@H](O)[C@H](OC)C2)CC(=O)[C@H](C)/C=C(\C)[C@@H](O)[C@@H](OC)C(=O)[C@H](C)C[C@H](C)/C=C/C=C/C=C/1C [Sirolimus]
Description: (§1)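 Same SRB 96 h IC50 screen on breast cancer cell lines (RPMI 1640 + 10% FBS, collagen I-coated 96-well plates, triplicates, 12 dilutions), for drugs with a different dose range: Bortezomib up to 2e-5 M; Sirolimus and 17-AAG up to 2e-6 M. Sirolimus values at the 2e-6 M top dose are censored.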

17-AAG = compound: C=CCNC1=C2C[C@@H](C)C[C@H](OC)[C@H](O)[C@@H](C)/C=C(\C)[C@H](OC(N)=O)[C@@H](OC)/C=C\C=C(/C)C(=O)NC(=CC1=O)C2=O [17-AAG]
Description: as §1

Bortezomib = compound: CC(C)C[C@H](NC(=O)[C@H](Cc1ccccc1)NC(=O)c1cnccn1)B(O)O [Bortezomib]
Description: as §1

Tamoxifen = compound: CC/C(=C(\c1ccccc1)c1ccc(OCCN(C)C)cc1)c1ccccc1 [Tamoxifen]
Description: (§2)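 Breast cancer cell lines were grown in RPMI 1640 with 10% FBS on collagen I-coated 96-well plates and treated for 96 h (from 24 h after seeding) with 12 dilutions per drug, in triplicate. Growth was read by sulforhodamine B total-protein staining (absorbance 570 nm) relative to diluent control, and IC50 was calculated. The top dose was 1e-5 M for most drugs; Bortezomib went to 2e-5 M and Sirolimus and 17-AAG to 2e-6 M[…].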

Belinostat = compound: O=C(/C=C/c1cccc(S(=O)(=O)Nc2ccccc2)c1)NO [Belinostat]
Description: as §2

Doxorubicin = compound: COc1cccc2c1C(=O)c1c(O)c3c(c(O)c1C2=O)C[C@@](O)(C(=O)CO)C[C@@H]3O[C@H]1C[C@H](N)[C@H](O)[C@H](C)O1 [Doxorubicin]
Description: as §2

Cisplatin = compound: N.N.[Cl][Pt][Cl] [Cisplatin]
Description: as §2

Paclitaxel = compound: CC(=O)O[C@H]1C(=O)[C@@]2(C)[C@H]([C@H](OC(=O)c3ccccc3)[C@]3(O)C[C@H](OC(=O)[C@H](O)[C@@H](NC(=O)c4ccccc4)c4ccccc4)C(C)=C1C3(C)C)[C@]1(OC(C)=O)CO[C@@H]1C[C@@H]2O [Paclitaxel]
Description: as §2

Gefitinib = compound: COc1cc2ncnc(Nc3ccc(F)c(Cl)c3)c2cc1OCCCN1CCOCC1 [Gefitinib]
Description: as §2

Erlotinib = compound: C#Cc1cccc(Nc2ncnc3cc(OCCOC)c(OCCOC)cc23)c1 [Erlotinib]
Description: as §2

Vandetanib = compound: COc1cc2/c(=N/c3ccc(Br)cc3F)nc[nH]c2cc1OCC1CCN(C)CC1 [Vandetanib]
Description: as §2

Serdemetan = compound: c1ccc2c(CCNc3ccc(Nc4ccncc4)cc3)c[nH]c2c1 [Serdemetan]
Description: as §2

Decitabine = compound: Nc1ncn([C@H]2C[C@H](O)[C@@H](CO)O2)c(=O)n1 [Decitabine]
Description: as §2

Dasatinib = compound: Cc1nc(Nc2ncc(C(=O)Nc3c(C)cccc3Cl)s2)cc(N2CCN(CCO)CC2)n1 [Dasatinib]
Description: as §2

Panobinostat = compound: Cc1[nH]c2ccccc2c1CCNCc1ccc(/C=C/C(=O)NO)cc1 [Panobinostat]
Description: as §2

Nutlin-3 = compound: COc1ccc(C2=N[C@@H](c3ccc(Cl)cc3)[C@@H](c3ccc(Cl)cc3)N2C(=O)N2CCNC(=O)C2)c(OC(C)C)c1 [Nutlin-3]
Description: as §2

Lapatinib = compound: CS(=O)(=O)CCNCc1ccc(-c2ccc3ncnc(Nc4ccc(OCc5cccc(F)c5)c(Cl)c4)c3c2)o1 [Lapatinib]
Description: as §2

Sunitinib = compound: CCN(CC)CCNC(=O)c1c(C)[nH]c(/C=C2\C(=O)Nc3ccc(F)cc32)c1C [Sunitinib]
Description: as §2

Methotrexate = compound: CN(Cc1cnc2nc(N)nc(N)c2n1)c1ccc(C(=O)N[C@@H](CCC(=O)O)C(=O)O)cc1 [Methotrexate]
Description: as §2

Sorafenib = compound: CNC(=O)c1cc(Oc2ccc(NC(=O)Nc3ccc(Cl)c(C(F)(F)F)c3)cc2)ccn1 [Sorafenib]
Description: as §2

ARQ197 = compound: O=C1NC(=O)[C@@H](c2cn3c4c(cccc24)CCC3)[C@@H]1c1c[nH]c2ccccc12 [ARQ197]
Description: as §2

Docetaxel = compound: CC(=O)O[C@@]12CO[C@@H]1C[C@H](O)[C@@]1(C)C(=O)[C@H](O)C3=C(C)[C@@H](OC(=O)[C@H](O)[C@@H](NC(=O)OC(C)(C)C)c4ccccc4)C[C@@](O)([C@@H](OC(=O)c4ccccc4)[C@H]21)C3(C)C [Docetaxel]
Description: as §2

Mitoxantrone = compound: O=C1c2c(O)ccc(O)c2C(=O)c2c(NCCNCCO)ccc(NCCNCCO)c21 [Mitoxantrone]
Description: as §2

5-Fluorouracil = compound: O=c1[nH]cc(F)c(=O)[nH]1 [5-Fluorouracil]
Description: as §2

MI-219 = compound: CC(C)(C)C[C@H]1N[C@@H](C(=O)NCC[C@H](O)CO)[C@H](c2cccc(Cl)c2)[C@@]12C(=O)Nc1cc(Cl)c(F)cc12 [MI-219]
Description: as §2

Azacitidine = compound: Nc1ncn([C@@H]2O[C@H](CO)[C@@H](O)[C@H]2O)c(=O)n1 [Azacitidine]
Description: as §2

Quisinostat = compound: Cn1cc(CNCC2CCN(c3ncc(C(=O)NO)cn3)CC2)c2ccccc21 [Quisinostat]
Description: as §2

Tipifarnib = compound: Cn1cncc1[C@@](N)(c1ccc(Cl)cc1)c1ccc2c(c1)c(-c1cccc(Cl)c1)cc(=O)n2C [Tipifarnib]
Description: as §2

Vorinostat = compound: O=C(CCCCCCC(=O)Nc1ccccc1)NO [Vorinostat]
Description: as §2

Brivanib = compound: Cc1cc2c(F)c(Oc3ncnn4cc(OC[C@@H](C)O)c(C)c34)ccc2[nH]1 [Brivanib]
Description: as §2

Test System	IC50 (SRB growth assay) (Sirolimus)	IC50 (SRB growth assay) (17-AAG)	IC50 (SRB growth assay) (Bortezomib)	IC50 (SRB growth assay) (Tamoxifen)	IC50 (SRB growth assay) (Belinostat)	IC50 (SRB growth assay) (Doxorubicin)	IC50 (SRB growth assay) (Cisplatin)	IC50 (SRB growth assay) (Paclitaxel)	IC50 (SRB growth assay) (Gefitinib)	IC50 (SRB growth assay) (Erlotinib)	IC50 (SRB growth assay) (Vandetanib)	IC50 (SRB growth assay) (Serdemetan)	IC50 (SRB growth assay) (Decitabine)	IC50 (SRB growth assay) (Dasatinib)	IC50 (SRB growth assay) (Panobinostat)	IC50 (SRB growth assay) (Nutlin-3)	IC50 (SRB growth assay) (Lapatinib)	IC50 (SRB growth assay) (Sunitinib)	IC50 (SRB growth assay) (Methotrexate)	IC50 (SRB growth assay) (Sorafenib)	IC50 (SRB growth assay) (ARQ197)	IC50 (SRB growth assay) (Docetaxel)	IC50 (SRB growth assay) (Mitoxantrone)	IC50 (SRB growth assay) (5-Fluorouracil)	IC50 (SRB growth assay) (MI-219)	IC50 (SRB growth assay) (Azacitidine)	IC50 (SRB growth assay) (Quisinostat)	IC50 (SRB growth assay) (Tipifarnib)	IC50 (SRB growth assay) (Vorinostat)	IC50 (SRB growth assay) (Brivanib)
MDA-MB 415	0.688 nM	71.8 nM	10.8 nM	9970 nM	548 nM	66 nM	> 10000 nM	5.81 nM	> 10000 nM	> 10000 nM	4780 nM	6070 nM	> 10000 nM	> 10000 nM	23.6 nM	> 10000 nM	> 10000 nM	5100 nM	326 nM	5200 nM	691 nM	0.764 nM	31.3 nM	6530 nM	> 10000 nM	> 10000 nM	24.1 nM	6780 nM	1530 nM	> 10000 nM
MDA-MB 435 S	> 2000 nM	164 nM	12.3 nM	> 10000 nM	2010 nM	54.8 nM	> 10000 nM	2.15 nM	> 10000 nM	> 10000 nM	6950 nM	2050 nM	> 10000 nM	> 10000 nM	44.5 nM	> 10000 nM	> 10000 nM	5440 nM	12.4 nM	6530 nM	705 nM	1.32 nM	35.8 nM	2860 nM	> 10000 nM	3760 nM	25.2 nM	> 10000 nM	2630 nM	> 10000 nM
MDA-MB 436	3.42 nM	34.9 nM	6.95 nM	> 10000 nM	637 nM	5.7 nM	1400 nM	2.3 nM	4960 nM	1970 nM	4100 nM	1000 nM	783 nM	1290 nM	34.6 nM	> 10000 nM	4660 nM	2170 nM	27.7 nM	4830 nM	359 nM	0.772 nM	0.781 nM	981 nM	> 10000 nM	1670 nM	23.5 nM	703 nM	1890 nM	> 10000 nM
MDA-MB 453	0.19 nM	3.08 nM	6.37 nM	6360 nM	52.7 nM	31.9 nM	> 10000 nM	2.14 nM	> 10000 nM	> 10000 nM	5110 nM	796 nM	4170 nM	3.93 nM	5.73 nM	> 10000 nM	827 nM	6260 nM	> 10000 nM	4930 nM	192 nM	0.872 nM	8.79 nM	> 10000 nM	> 10000 nM	7190 nM	2.01 nM	2140 nM	368 nM	> 10000 nM
MDA-MB 468	2.22 nM	745 nM	4.31 nM	4940 nM	436 nM	9.63 nM	974 nM	1.56 nM	990 nM	1150 nM	1990 nM	837 nM	77.7 nM	> 10000 nM	14.9 nM	> 10000 nM	762 nM	2940 nM	7.54 nM	4530 nM	222 nM	0.515 nM	4.09 nM	5280 nM	> 10000 nM	2340 nM	9.89 nM	77 nM	1030 nM	> 10000 nM
MPE 600	1.52 nM	104 nM	5.48 nM	> 10000 nM	379 nM	26.6 nM	> 10000 nM	2.51 nM	4260 nM	8850 nM	1990 nM	2260 nM	595 nM	> 10000 nM	13.8 nM	4450 nM	3080 nM	6560 nM	31 nM	1900 nM	859 nM	1.15 nM	8.01 nM	1250 nM	2050 nM	548 nM	14.8 nM	631 nM	1220 nM	> 10000 nM
OCUB-M	0.132 nM	119 nM	3.35 nM	> 10000 nM	133 nM	1.98 nM	> 10000 nM	0.888 nM	> 10000 nM	9580 nM	2770 nM	2850 nM	3680 nM	> 10000 nM	8.13 nM	> 10000 nM	2200 nM	3520 nM	6.6 nM	3830 nM	483 nM	0.279 nM	1.27 nM	1880 nM	> 10000 nM	1690 nM	5.92 nM	156 nM	520 nM	> 10000 nM
SKBR 3	0.587 nM	18.9 nM	5.5 nM	6720 nM	190 nM	20.4 nM	> 10000 nM	1.68 nM	2630 nM	3740 nM	3490 nM	1080 nM	2350 nM	> 10000 nM	5.39 nM	> 10000 nM	43.7 nM	3410 nM	9.97 nM	4790 nM	404 nM	0.589 nM	4.74 nM	4770 nM	> 10000 nM	2690 nM	3.33 nM	279 nM	499 nM	> 10000 nM
SUM 44 PE	0.222 nM	15.8 nM	9.46 nM	5200 nM	139 nM	30.8 nM	> 10000 nM	1.35 nM	> 10000 nM	> 10000 nM	4200 nM	2880 nM	> 10000 nM	> 10000 nM	9.33 nM	> 10000 nM	4760 nM	5020 nM	> 10000 nM	5050 nM	539 nM	0.414 nM	20.7 nM	8640 nM	> 10000 nM	3440 nM	2.21 nM	3270 nM	564 nM	> 10000 nM
SUM 52 PE	0.165 nM	35.4 nM	5.23 nM	6890 nM	183 nM	17.7 nM	6700 nM	1.42 nM	7870 nM	8810 nM	711 nM	570 nM	2210 nM	2200 nM	7.17 nM	> 10000 nM	3210 nM	1160 nM	23.2 nM	655 nM	427 nM	0.489 nM	7.57 nM	1240 nM	> 10000 nM	2000 nM	1.47 nM	185 nM	366 nM	1270 nM

Source: the supplement of paper PMC4628005
